Laboratory results reported in patent publication US20260042764A1, “COMPOSITIONS AND METHODS FOR INHIBITION OF KRAS” (TheRas, Inc., priority 2022, published 2026).

Assays:
[1] = target: T1, Avi-KRAS WT (2-169) GTP/RAF1 RBD-3xFLAG (51-131) (Homo sapiens, UniProt P01116); experiment: Raf1-KRAS WT-GTP disruption HTRF assay (Biological Example 3); format: binding; conditions: KRAS WT, GTP-loaded
T1 construct: Avi-KRAS WT (2-169)
Outline: (§1)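 An HTRF assay measured disruption of 50 nM Avi-KRAS (2-169)-GTP (WT, G12C, G12D or G12V) bound to RAF1 RBD-3xFLAG (51-131). Buffer was Tris pH 7.5 with 5 mM MgCl2 and 10% DMSO. Compounds (30–0.005 μM, 3-fold, 10 points) were incubated 1 h at room temperature, and activity is given as % of DMSO.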

SW620 cells (KRAS G12V) = experiment: Cell-based pERK HTRF assay in SW620 cell (Biological Example 4)
Outline: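 SW620 cells were treated for 4 h with compound in a 9-point half-log series from 1 μM top (0.25% DMSO), then lysed. Phospho-ERK was detected by HTRF with d2 and Eu cryptate antibodies after 4–24 h at room temperature, read at 615 nm emission.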

[2] = target: T2, Avi-KRAS G12R (1-169) GppNHp/RAF1 RBD-3xFLAG (52-151) (Homo sapiens, UniProt P01116, G12R); experiment: Raf1-KRAS G12R-GppNHP disruption HTRF assay (Biological Example 1); format: binding
T2 construct: Avi-KRAS G12R (1-169)
Outline: (§2)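 Measured with a KRAS/RAF1 HTRF assay at pH 7.5 in 10% DMSO, with two 1 h room-temperature incubations with shaking.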

[3] = target: T3, Avi-KRAS G12D (2-169) GTP/RAF1 RBD-3xFLAG (51-131) (Homo sapiens, UniProt P01116, G12D); experiment: Raf1-KRAS G12D-GTP disruption HTRF assay (Biological Example 3); format: binding; conditions: KRAS G12D, GTP-loaded
T3 construct: Avi-KRAS G12D (2-169)
Outline: as §1

[4] = target: T4, Avi-KRAS WT (1-169) GppNHp/RAF1 RBD-3xFLAG (52-151) (Homo sapiens, UniProt P01116); experiment: Raf1-KRAS WT-GppNHP disruption HTRF assay (Biological Example 1); format: binding
T4 construct: Avi-KRAS WT (1-169)
Outline: as §2

[5] = Homo sapiens, SW-620, SW620 (KRAS G12V) cells
[6] = Homo sapiens, SW-620, SW620 (KRAS G12V) cells, pERK HTRF
[7] = KRAS G12R, GppNHp-loaded, Table 11
[8] = KRAS WT, GppNHp-loaded, Table 11
[9] = SW620 (KRAS G12V) cells, pERK HTRF

T4 sequence (P01116 1-169 isoform P01116-2): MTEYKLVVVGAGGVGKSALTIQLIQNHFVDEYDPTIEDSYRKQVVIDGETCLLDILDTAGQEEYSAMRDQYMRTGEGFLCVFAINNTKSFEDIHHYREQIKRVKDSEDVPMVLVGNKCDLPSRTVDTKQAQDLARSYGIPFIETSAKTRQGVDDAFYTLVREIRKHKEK
T3 sequence (P01116 2-169 isoform P01116-2 G12D): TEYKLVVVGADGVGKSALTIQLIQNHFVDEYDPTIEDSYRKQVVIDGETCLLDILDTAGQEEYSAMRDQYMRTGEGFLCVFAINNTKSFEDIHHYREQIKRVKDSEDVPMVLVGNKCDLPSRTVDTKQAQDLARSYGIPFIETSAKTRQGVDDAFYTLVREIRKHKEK
T2 sequence (P01116 1-169 isoform P01116-2 G12R): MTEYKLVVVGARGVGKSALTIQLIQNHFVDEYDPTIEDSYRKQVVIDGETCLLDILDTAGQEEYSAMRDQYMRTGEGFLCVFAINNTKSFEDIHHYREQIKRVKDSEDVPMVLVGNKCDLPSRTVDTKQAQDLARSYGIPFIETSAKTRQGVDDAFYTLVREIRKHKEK
T1 sequence (P01116 2-169 isoform P01116-2): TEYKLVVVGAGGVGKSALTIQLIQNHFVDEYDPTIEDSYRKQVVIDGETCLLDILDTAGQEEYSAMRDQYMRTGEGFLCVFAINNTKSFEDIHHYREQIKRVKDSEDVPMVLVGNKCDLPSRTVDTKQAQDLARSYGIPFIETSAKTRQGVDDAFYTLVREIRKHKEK

Structure (SMILES) | IC50 [1] [nM] | IC50 (SW620 cells (KRAS G12V); [5]) [nM] | IC50 (SW620 cells (KRAS G12V); [6]) [nM] | IC50 [2, 7] [nM] | IC50 [3] [nM] | IC50 [4, 8] [nM] | IC50 ([2]; KRAS G12R-GppNHp/RAF1 RBD HTRF) [nM] | IC50 ([4]; KRAS WT-GppNHp/RAF1 RBD HTRF) [nM] | IC50 (SW620 cells (KRAS G12V); SW620 (KRAS G12V) cells) [nM] | IC50 (SW620 cells (KRAS G12V); [9]) [nM] | IC50 (SW620 cells (KRAS G12V); Homo sapiens, SW-620, SW620 (KRAS G12V) cells, pERK HTRF, class symbols) [nM] | IC50 ([2]; KRAS G12R, GppNHp-loaded, class symbols) [nM] | IC50 ([4]; KRAS WT, GppNHp-loaded, class symbols) [nM]
CC(=O)N1CC(N(C)c2nc(OCC34CCCN3CC(F)C4)nc3c(F)c(-c4ccc(F)c5sc(N)c(C#N)c45)c(C(F)(F)F)cc23)CC1C (stereo not drawn) [Compound 291] | 100 to 1000 |  |  |  | 100 to 1000 |  | 100 to 1000 | 100 to 1000 | < 100 | < 100 |  |  | 
CC(=O)N1C[C@H](N(C)c2nc(OC[C@@]34CCCN3C[C@H](F)C4)nc3c(F)c(-c4ccc(F)c5sc(N)c(C#N)c45)c(C(F)(F)F)cc23)C[C@@H]1C [Compound 298] | 100 to 1000 | < 100 | < 100 |  | 1000 to 10000 |  | 100 to 1000 | 100 to 1000 |  |  |  |  | 
CCC(=O)N1CC[C@@H](N(CC)c2nc(OC[C@@]34CCCN3C[C@H](F)C4)nc3c(F)c(-c4ccc(F)c5sc(N)c(C#N)c45)c(C(F)(F)F)cc23)C1 [Compound 327] | 100 to 1000 | < 100 | < 100 |  | 100 to 1000 |  | 100 to 1000 | 100 to 1000 |  |  |  |  | 
CCN(c1nc(OC[C@@]23CCCN2C[C@H](F)C3)nc2c(F)c(-c3ccc(F)c4sc(N)c(C#N)c34)c(C(F)(F)F)cc12)[C@@H]1CCN(C(=O)C(C)C)C1 [Compound 328] | 100 to 1000 | < 100 | < 100 |  | 100 to 1000 |  | 100 to 1000 | 100 to 1000 |  |  |  |  | 
CCN(c1nc(OC[C@@]23CCCN2C[C@H](F)C3)nc2c(F)c(-c3ccc(F)c4sc(N)c(C#N)c34)c(C(F)(F)F)cc12)[C@@H]1CCN(C(=O)C2CC2)C1 [Compound 329] | 100 to 1000 | < 100 | < 100 |  | 100 to 1000 |  | 100 to 1000 | 100 to 1000 |  |  |  |  | 
CCN(c1nc(OC[C@@]23CCCN2C[C@H](F)C3)nc2c(F)c(-c3ccc(F)c4sc(N)c(C#N)c34)c(C(F)(F)F)cc12)[C@H]1CCN(C(=O)C2CC2)C1 [Compound 331] | 100 to 1000 | < 100 | < 100 |  | 100 to 1000 |  | < 100 | 100 to 1000 |  |  |  |  | 
CCN(c1nc(OC[C@@]23CCCN2C[C@H](F)C3)nc2c(F)c(-c3ccc(F)c4sc(N)c(C#N)c34)c(C(F)(F)F)cc12)[C@H]1CCN(C(=O)C(C)C)C1 [Compound 332] | 100 to 1000 | < 100 |  |  | 100 to 1000 |  | < 100 | < 100 |  | < 100 |  |  | 
CN(C)C(=O)c1cc2n(n1)CCN(c1nc(OC[C@@]34CCCN3C[C@H](F)C4)nc3c(F)c(-c4ccc(F)c5sc(N)c(C#N)c45)c(C(F)(F)F)cc13)C2 [Compound 355] | 1000 to 10000 | < 100 | < 100 |  | 100 to 1000 |  | 100 to 1000 | 100 to 1000 |  |  |  |  | 
[2H]C1([2H])O[C@@H]2C[C@H]1N(c1nc(OC[C@@]34CCCN3C[C@H](F)C4)nc3c(F)c(-c4ccc(F)c5sc(N)c(C#N)c45)c(C(F)(F)F)cc13)C2 [Compound 371] | 100 to 1000 | < 100 | < 100 |  | 100 to 1000 |  | 100 to 1000 | 100 to 1000 |  |  |  |  | 
CCN(c1nc(OC[C@@]23CCCN2C[C@H](F)C3)nc2c(F)c(-c3ccc(F)c4sc(N)c(C#N)c34)c(C(F)(F)F)cc12)[C@H]1CCN(C(=O)OC)C1 [Compound 394] | 100 to 1000 | < 100 | < 100 |  | 100 to 1000 |  | < 100 | < 100 |  |  |  |  | 
CCN(c1nc(OC[C@@]23CCCN2C[C@H](F)C3)nc2c(F)c(-c3ccc(F)c4sc(N)c(C#N)c34)c(C(F)(F)F)cc12)[C@H]1CCN(C(=O)C2CC2(F)F)C1 (stereo partly drawn) [Compound 581] | 100 to 1000 | < 100 |  |  | ≤ 100 |  |  |  |  |  | < 100 | < 100 | < 100

Now from value to compound:

IC50 [1] [nM] | IC50 (SW620 cells (KRAS G12V); [5]) [nM] | IC50 (SW620 cells (KRAS G12V); [6]) [nM] | IC50 [2, 7] [nM] | IC50 [3] [nM] | IC50 [4, 8] [nM] | IC50 ([2]; KRAS G12R-GppNHp/RAF1 RBD HTRF) [nM] | IC50 ([4]; KRAS WT-GppNHp/RAF1 RBD HTRF) [nM] | IC50 (SW620 cells (KRAS G12V); SW620 (KRAS G12V) cells) [nM] | IC50 (SW620 cells (KRAS G12V); [9]) [nM] | IC50 (SW620 cells (KRAS G12V); Homo sapiens, SW-620, SW620 (KRAS G12V) cells, pERK HTRF, class symbols) [nM] | IC50 ([2]; KRAS G12R, GppNHp-loaded, class symbols) [nM] | IC50 ([4]; KRAS WT, GppNHp-loaded, class symbols) [nM] | Structure (SMILES)
100 to 1000 | < 100 | < 100 | 100 to 1000 | 100 to 1000 | 100 to 1000 |  |  |  |  |  |  |  | N#Cc1c(N)sc2c(F)ccc(-c3c(C(F)(F)F)cc4c(N5CCCOCC5)nc(OC[C@@]56CCCN5C[C@H](F)C6)nc4c3F)c12 [Compound 232]
100 to 1000 | < 100 | < 100 | < 100 | 100 to 1000 | < 100 |  |  |  |  |  |  |  | N#Cc1c(N)sc2c(F)ccc(-c3c(C(F)(F)F)cc4c(N5CCNS(=O)(=O)CC5)nc(OC[C@@]56CCCN5C[C@H](F)C6)nc4c3F)c12 [Compound 245]
100 to 1000 | < 100 | 100 to 1000 | 100 to 1000 | 100 to 1000 | 100 to 1000 |  |  |  |  |  |  |  | N#Cc1c(N)sc2c(F)ccc(-c3c(C(F)(F)F)cc4c(N5C[C@H]6C[C@@H]5CO6)nc(OC[C@@]56CCCN5C[C@H](F)C6)nc4c3F)c12 [Compound 253, 2-amino-7-fluoro-4-[8-fluoro-2-[[(2R,8S)-2-fluoro-1,2,3,5,6,7-hexahydropyrrolizin-8-yl]methoxy]-4-[(1R,4R)-2-oxa-5-azabicyclo[2.2.1]heptan-5-yl]-6-(trifluoromethyl)quinazolin-7-yl]benzothiophene-3-carbonitrile]
100 to 1000 | < 100 | < 100 | < 100 | ≤ 100 | < 100 |  |  |  |  |  |  |  | CCN(c1nc(OC[C@@]23CCCN2C[C@H](F)C3)nc2c(F)c(-c3ccc(F)c4sc(N)c(C#N)c34)c(C(F)(F)F)cc12)[C@H]1CCN(C(C)=O)C1 [Compound 262]
100 to 1000 | < 100 | < 100 | < 100 | 100 to 1000 | < 100 |  |  |  |  |  |  |  | CCN(c1nc(OC[C@@]23CCCN2C[C@H](F)C3)nc2c(F)c(-c3ccc(F)c4sc(N)c(C#N)c34)c(C(F)(F)F)cc12)[C@@H]1CCN(C(C)=O)C1 [Compound 268]
100 to 1000 | < 100 | < 100 |  | 100 to 1000 |  | < 100 | < 100 |  |  |  |  |  | N#Cc1c(N)sc2c(F)ccc(-c3c(C(F)(F)F)cc4c(N5CCCC[C@@H](O)C5)nc(OC[C@@]56CCCN5C[C@H](F)C6)nc4c3F)c12 [Compound 286]
